Results filed as inconclusive are left out. Activity calls are given as the source filed them. No rule for the calls is given here.
Each compound was assayed against Zinc finger protein mex-5 (Caenorhabditis elegans) (UniProt Q9XUB2) (assay: potency of MEX-5 RNA-binding blockers – biochemical, fluorescence polarization, dose response (AID 1960)). Conditions: MEX-5/FITC-TCR2 RNA fluorescence polarization, 1 h.
Chain of Zinc finger protein mex-5 (Caenorhabditis elegans) (Q9XUB2 whole entry, looked up): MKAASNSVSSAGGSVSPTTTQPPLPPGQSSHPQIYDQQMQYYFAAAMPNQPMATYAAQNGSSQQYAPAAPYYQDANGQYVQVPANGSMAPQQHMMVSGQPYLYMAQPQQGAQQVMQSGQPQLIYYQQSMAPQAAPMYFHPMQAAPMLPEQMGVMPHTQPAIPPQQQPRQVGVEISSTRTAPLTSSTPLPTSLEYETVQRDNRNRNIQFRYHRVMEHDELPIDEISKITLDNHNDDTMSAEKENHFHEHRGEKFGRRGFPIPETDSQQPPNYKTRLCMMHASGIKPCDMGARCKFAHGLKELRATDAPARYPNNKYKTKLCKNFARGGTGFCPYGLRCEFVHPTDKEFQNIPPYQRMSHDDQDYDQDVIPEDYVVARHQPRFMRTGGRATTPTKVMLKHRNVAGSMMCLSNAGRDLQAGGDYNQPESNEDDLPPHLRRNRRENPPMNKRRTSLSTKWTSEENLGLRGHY
CCC(C)/C=C(C)/C=C/C1=CC2=C(Cl)C(=O)C(C)(OC(C)=O)C(=O)C2=CO1 (centres undefined) was tested, and the EC50 was > 30 µM (inactive).
With Cc1cc(/C=C2/C(=O)NC(=O)N(Cc3ccco3)C2=O)c(C)n1-c1ccc(C(=O)O)cc1 the EC50 was > 30 µM (inactive).
CC[C@H](C)/C=C(C)/C=C/C1=CC2=C(Cl)C(=O)[C@@](C)(OC(C)=O)C(=O)C2=CO1 gave an EC50 of 17.8 µM.
With CCN(CC)c1ccc(N=Cc2c(O)n(Cc3ccccc3)c(=O)[nH]c2=O)cc1 the EC50 was > 30 µM (inactive).
